Target: Recombinant human ULK1 (1-649) (Homo sapiens (Human), UniProt O75385)
Test: ULK1 ADP Glo kinase activity assay, new method (ULKtide peptide substrate)
Conditions: 25° C., 40 minutes, read-out: ULK1 biochemical IC50
Method in brief: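 Kinase activity was read as ADP production (ADP-Glo, luminescence 30 min after detection reagent) following a 40-min, 25 °C reaction of Sf9-expressed GST-ULK1 (1-649) with ULKtide substrate and ATP. Compounds ran as 12-point series starting at 10 μM; four-parameter curve fitting versus DMSO wells gave IC50.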

Sequence of Recombinant human ULK1 (1-649) (O75385 1-649): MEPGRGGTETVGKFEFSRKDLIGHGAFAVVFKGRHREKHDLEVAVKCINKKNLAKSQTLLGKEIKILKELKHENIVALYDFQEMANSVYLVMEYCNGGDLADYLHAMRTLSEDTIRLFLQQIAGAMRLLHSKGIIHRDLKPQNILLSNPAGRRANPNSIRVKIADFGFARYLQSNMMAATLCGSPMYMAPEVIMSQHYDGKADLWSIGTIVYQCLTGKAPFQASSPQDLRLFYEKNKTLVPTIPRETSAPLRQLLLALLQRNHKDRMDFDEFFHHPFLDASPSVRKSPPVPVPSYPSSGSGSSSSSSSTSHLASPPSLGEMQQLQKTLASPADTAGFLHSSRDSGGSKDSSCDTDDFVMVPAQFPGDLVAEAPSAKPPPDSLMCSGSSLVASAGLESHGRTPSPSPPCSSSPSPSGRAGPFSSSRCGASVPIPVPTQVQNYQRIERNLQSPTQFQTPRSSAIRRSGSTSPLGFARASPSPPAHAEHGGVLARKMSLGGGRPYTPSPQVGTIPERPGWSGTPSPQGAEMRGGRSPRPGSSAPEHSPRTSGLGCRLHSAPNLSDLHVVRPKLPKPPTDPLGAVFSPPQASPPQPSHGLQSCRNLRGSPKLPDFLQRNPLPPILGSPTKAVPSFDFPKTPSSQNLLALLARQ

Q: `C[C@@H]1CN(c2ccc(Nc3ncc(C(F)(F)F)c(-c4cc5c(s4)C(=O)N(C4COC4)CCS5(=O)=O)n3)c(C3CC3)c2)C[C@H](C)N1C` [Example 357, 7-(2-((2-cyclopropyl-4-((3S,5R)-3,4,5-trimethylpiperazin-1-yl)phenyl)amino)-5-(trifluoromethyl)pyrimidin-4-yl)-4-(oxetan-3-yl)-3,4-dihydrothieno[2,3-f][1,4]thiazepin-5(2H)-one 1,1-dioxide] was tested. Which IC50 did it give?
A: Its IC50 is at most 5 nM.

Q: `O=C1c2sc(-c3nc(Nc4ccc(N5CCN[C@@H](CO)C5)cc4C4CC4)ncc3C(F)(F)F)cc2S(=O)(=O)CCN1C1COC1` [Example 358, (R)-7-(2-((2-cyclopropyl-4-(3-(hydroxymethyl)piperazin-1-yl)phenyl)amino)-5-(trifluoromethyl)pyrimidin-4-yl)-4-(oxetan-3-yl)-3,4-dihydrothieno[2,3-f][1,4]thiazepin-5(2H)-one 1,1-dioxide] was tested. Which IC50 did it give?
A: Its IC50 is at most 5 nM.

Q: With `CCc1cc(N2CCN[C@H](C)C2)ccc1Nc1ncc(C(F)(F)F)c(-c2cc3c(s2)C(=O)N(C2CC2)CCS3(=O)=O)n1` [Example 359, (R)-4-cyclopropyl-7-(2-((2-ethyl-4-(3-methylpiperazin-1-yl)phenyl)amino)-5-(trifluoromethyl)pyrimidin-4-yl)-3,4-dihydrothieno[2,3-f][1,4]thiazepin-5(2H)-one 1,1-dioxide] as the compound, how does the IC50 read?
A: Its IC50 is at most 5 nM.

Q: Which IC50 does the source give for `CCc1cc(N2CCN(C)[C@H](C)C2)ccc1Nc1ncc(C(F)(F)F)c(-c2cc3c(s2)C(=O)N(C2CC2)CCS3(=O)=O)n1` [Example 360, (R)-4-cyclopropyl-7-(2-((4-(3,4-dimethylpiperazin-1-yl)-2-ethylphenyl)amino)-5-(trifluoromethyl)pyrimidin-4-yl)-3,4-dihydrothieno[2,3-f][1,4]thiazepin-5(2H)-one 1,1-dioxide] here?
A: The IC50 was at most 5 nM.

Q: With `CCc1cc(N2CCN(C)[C@@H](C)C2)ccc1Nc1ncc(C(F)(F)F)c(-c2cc3c(s2)C(=O)N(C2CC2)CCS3(=O)=O)n1` [Example 361, (S)-4-cyclopropyl-7-(2-((4-(3,4-dimethylpiperazin-1-yl)-2-ethylphenyl)amino)-5-(trifluoromethyl)pyrimidin-4-yl)-3,4-dihydrothieno[2,3-f][1,4]thiazepin-5(2H)-one 1,1-dioxide] as the compound, how does the IC50 read?
A: The IC50 was at most 5 nM.

Q: `CCc1cc(N2CCN(C)[C@@H](C)C2)ccc1Nc1ncc(C(F)(F)F)c(-c2cc3c(s2)C(=O)N(C2COC2)CCS3(=O)=O)n1` [Example 362, (S)-7-(2-((4-(3,4-dimethylpiperazin-1-yl)-2-ethylphenyl)amino)-5-(trifluoromethyl)pyrimidin-4-yl)-4-(oxetan-3-yl)-3,4-dihydrothieno[2,3-f][1,4]thiazepin-5(2H)-one 1,1-dioxide] was tested. Which IC50 did it give?
A: Its IC50 is at most 5 nM.

Q: Which IC50 does the source give for `CCc1cc(N2C[C@H](C)N(C)[C@@H](C)C2)ccc1Nc1ncc(C(F)(F)F)c(-c2cc3c(s2)C(=O)N(C2CC2)CCS3(=O)=O)n1` [Example 363, 4-cyclopropyl-7-(2-((2-ethyl-4-((3S,5S)-3,4,5-trimethylpiperazin-1-yl)phenyl)amino)-5-(trifluoromethyl)pyrimidin-4-yl)-3,4-dihydrothieno[2,3-f][1,4]thiazepin-5(2H)-one 1,1-dioxide] here?
A: Its IC50 is at most 5 nM.

Q: How did the IC50 turn out when `CCc1cc(N2CCNCC2)ccc1Nc1ncc(C(F)(F)F)c(-c2cc3c(s2)C(=O)N(C2COC2)CCS3(=O)=O)n1` [Example 364, 7-(2-((2-ethyl-4-(piperazin-1-yl)phenyl)amino)-5-(trifluoromethyl)pyrimidin-4-yl)-4-(oxetan-3-yl)-3,4-dihydrothieno[2,3-f][1,4]thiazepin-5(2H)-one 1,1-dioxide] was run?
A: The IC50 was at most 5 nM.

Q: For `CCc1cc(N2C[C@@H](C)N[C@@H](C)C2)ccc1Nc1ncc(C(F)(F)F)c(-c2cc3c(s2)C(=O)N(C2CC2)CCS3(=O)=O)n1` [Example 366, 4-cyclopropyl-7-(2-((4-((3S,5R)-3,5-dimethylpiperazin-1-yl)-2-ethylphenyl)amino)-5-(trifluoromethyl)pyrimidin-4-yl)-3,4-dihydrothieno[2,3-f][1,4]thiazepin-5(2H)-one 1,1-dioxide], which IC50 is on record?
A: The IC50 was at most 5 nM.

Q: With `CCc1cc(N2C[C@@H](C)N(C)[C@@H](C)C2)ccc1Nc1ncc(C(F)(F)F)c(-c2cc3c(s2)C(=O)N(C2CC2)CCS3(=O)=O)n1` [Example 367, 4-cyclopropyl-7-(2-((2-ethyl-4-((3S,5R)-3,4,5-trimethylpiperazin-1-yl)phenyl)amino)-5-(trifluoromethyl)pyrimidin-4-yl)-3,4-dihydrothieno[2,3-f][1,4]thiazepin-5(2H)-one 1,1-dioxide] as the compound, how does the IC50 read?
A: The IC50 was at most 5 nM.

Q: Which IC50 does the source give for `CCc1cc(N2C[C@@H](C)N[C@@H](C)C2)ccc1Nc1ncc(C(F)(F)F)c(-c2cc3c(s2)C(=O)N(C2COC2)CCS3(=O)=O)n1` [Example 368, 7-(2-((4-((3S,5R)-3,5-dimethylpiperazin-1-yl)-2-ethylphenyl)amino)-5-(trifluoromethyl)pyrimidin-4-yl)-4-(oxetan-3-yl)-3,4-dihydrothieno[2,3-f][1,4]thiazepin-5(2H)-one 1,1-dioxide] here?
A: The IC50 was at most 5 nM.

Q: With `CCc1cc(N2C[C@@H](C)N(C)[C@@H](C)C2)ccc1Nc1ncc(C(F)(F)F)c(-c2cc3c(s2)C(=O)N(C2COC2)CCS3(=O)=O)n1` [Example 369, 7-(2-((2-ethyl-4-((3S,5R)-3,4,5-trimethylpiperazin-1-yl)phenyl)amino)-5-(trifluoromethyl)pyrimidin-4-yl)-4-(oxetan-3-yl)-3,4-dihydrothieno[2,3-f][1,4]thiazepin-5(2H)-one 1,1-dioxide] as the compound, how does the IC50 read?
A: Its IC50 is at most 5 nM.

Q: Which IC50 does the source give for `CCc1cc(N2C[C@H](C)N[C@@H](C)C2)ccc1Nc1ncc(C(F)(F)F)c(-c2cc3c(s2)C(=O)N(C2COC2)CCS3(=O)=O)n1` [Example 370, 7-(2-((4-((3S,5S)-3,5-dimethylpiperazin-1-yl)-2-ethylphenyl)amino)-5-(trifluoromethyl)pyrimidin-4-yl)-4-(oxetan-3-yl)-3,4-dihydrothieno[2,3-f][1,4]thiazepin-5(2H)-one 1,1-dioxide] here?
A: The IC50 was at most 5 nM.

Q: `NC(=O)[C@@H]1CN(c2ccc(Nc3ncc(C(F)(F)F)c(-c4cc5c(s4)C(=O)N(C4COC4)CCS5(=O)=O)n3)c(C3CC3)c2)CCN1` [Example 371, (S)-4-(3-cyclopropyl-4-((4-(4-(oxetan-3-yl)-1,1-dioxido-5-oxo-2,3,4,5-tetrahydrothieno[2,3-f][1,4]thiazepin-7-yl)-5-(trifluoromethyl)pyrimidin-2-yl)amino)phenyl)piperazine-2-carboxamide] was tested. Which IC50 did it give?
A: The IC50 was at most 5 nM.

Q: For `CN1CCN(c2ccc(Nc3ncc(C(F)(F)F)c(-c4cc5c(s4)C(=O)N(C4COC4)CCS5(=O)=O)n3)c(C3CC3)c2)C[C@H]1C(N)=O` [Example 372, (S)-4-(3-Cyclopropyl-4-((4-(4-(oxetan-3-yl)-1,1-dioxido-5-oxo-2,3,4,5-tetrahydrothieno[2,3-f][1,4]thiazepin-7-yl)-5-(trifluoromethyl)pyrimidin-2-yl)amino)phenyl)-1-methylpiperazine-2-carboxamide], which IC50 is on record?
A: Its IC50 is at most 5 nM.

Q: For `CNC(=O)[C@@H]1CN(c2ccc(Nc3ncc(C(F)(F)F)c(-c4cc5c(s4)C(=O)N(C4COC4)CCS5(=O)=O)n3)c(C3CC3)c2)CCN1` [Example 373, (S)-4-(3-cyclopropyl-4-((4-(4-(oxetan-3-yl)-1,1-dioxido-5-oxo-2,3,4,5-tetrahydrothieno[2,3-f][1,4]thiazepin-7-yl)-5-(trifluoromethyl)pyrimidin-2-yl)amino)phenyl)-N-methylpiperazine-2-carboxamide], which IC50 is on record?
A: The IC50 was at most 5 nM.

Q: Which IC50 does the source give for `C[C@@H]1CN(c2cc(C3CC3)c(Nc3ncc(C(F)(F)F)c(-c4cc5c(s4)C(=O)N(C4COC4)CCS5(=O)=O)n3)cn2)CCN1` [Example 374, (R)-7-(2-((4-cyclopropyl-6-(3-methylpiperazin-1-yl)pyridin-3-yl)amino)-5-(trifluoromethyl)pyrimidin-4-yl)-4-(oxetan-3-yl)-3,4-dihydrothieno[2,3-f][1,4]thiazepin-5(2H)-one 1,1-dioxide] here?
A: The IC50 was at most 5 nM.

Q: `C[C@@H]1CN(c2ccc(Nc3ncc(C(F)(F)F)c(-c4cc5c(s4)C(=O)N(C4COC4)CCS5(=O)=O)n3)c(C3CC3)n2)CCN1` [Example 375, (R)-7-(2-((2-cyclopropyl-6-(3-methylpiperazin-1-yl)pyridin-3-yl)amino)-5-(trifluoromethyl)pyrimidin-4-yl)-4-(oxetan-3-yl)-3,4-dihydrothieno[2,3-f][1,4]thiazepin-5(2H)-one 1,1-dioxide] was tested. Which IC50 did it give?
A: Its IC50 is at most 5 nM.

Q: `C[C@@H]1CN(c2ccc(Nc3ncc(C(F)(F)F)c(-c4cc5c(s4)C(=O)N(C4COC4)CCS5(=O)=O)n3)c(C3CC3)n2)CCN1C` [Example 376, (R)-7-(2-((2-cyclopropyl-6-(3,4-dimethylpiperazin-1-yl)pyridin-3-yl)amino)-5-(trifluoromethyl)pyrimidin-4-yl)-4-(oxetan-3-yl)-3,4-dihydrothieno[2,3-f][1,4]thiazepin-5(2H)-one 1,1-dioxide] was tested. Which IC50 did it give?
A: Its IC50 is at most 5 nM.

Q: How did the IC50 turn out when `O=C1c2sc(-c3nc(Nc4ccc(N5CC6(CNC6)C5)cc4C4CC4)ncc3C(F)(F)F)cc2S(=O)(=O)CCN1C1COC1` [Example 377, 7-(2-((2-Cyclopropyl-4-(2,6-diazaspiro[3.3]heptan-2-yl)phenyl)amino)-5-(trifluoromethyl)pyrimidin-4-yl)-4-(oxetan-3-yl)-3,4-dihydrothieno[2,3-f][1,4]thiazepin-5(2H)-one 1,1-dioxide] was run?
A: Its IC50 is at most 5 nM.

Q: With `C[C@@H]1CN(c2ccc(Nc3ncc(C(F)(F)F)c(-c4cc5c(s4)C(=O)N(C)CCS5(=O)=O)n3)c(C3CC3)c2)CCN1C` [Example 378, (R)-7-(2-((2-cyclopropyl-4-(3,4-dimethylpiperazin-1-yl)phenyl)amino)-5-(trifluoromethyl)pyrimidin-4-yl)-4-methyl-3,4-dihydrothieno[2,3-f][1,4]thiazepin-5(2H)-one 1,1-dioxide] as the compound, how does the IC50 read?
A: Its IC50 is at most 5 nM.

Q: `CN1CCS(=O)(=O)c2cc(-c3nc(Nc4ccc(N5C[C@H]6C[C@@H]5CN6)cc4C4CC4)ncc3C(F)(F)F)sc2C1=O` [Example 379, 7-(2-((4-((1R,4R)-2,5-diazabicyclo[2.2.1]heptan-2-yl)-2-cyclopropylphenyl)amino)-5-(trifluoromethyl)pyrimidin-4-yl)-4-methyl-3,4-dihydrothieno[2,3-f][1,4]thiazepin-5(2H)-one 1,1-dioxide] was tested. Which IC50 did it give?
A: Its IC50 is at most 5 nM.

Reference: US20250144094A1 (Erasca, Inc., priority 2021, published 2025)
